One test concerns Class II HLA alleles. In words: Soluble HLA competition binding assay, panel of five alleles (summary statements). Details: species or system human. On the procedure:
HLA Binding Assay. Binding activity was analyzed at EpiVax (Providence, R.I.). The binding assay used (Steere A C et al., (2006), J Exp Med, 2003(4):961-71) yielded an indirect measure of peptide-MHC affinity. Soluble HLA molecules were loaded onto a 96-well plate with the unlabeled experimental Tregitopes and labeled control peptide. Once the binding mixture reached steady equilibrium (at 24 hours), the HLA-Tregitope complexes were captured on an ELISA plate coated with anti-human DR antibody and detected with a Europium-linked probe for the label (PerkinElmer, Waltham, Mass.). Time-resolved fluorescence measuring bound labeled control peptide is assessed by a SpectraMax® M5 unit (Spectramax, Radnor, Pa.). Binding of experimental Tregitopes was expressed as the percent inhibition of the labeled control peptide (experimental fluorescence/control fluorescence multiplied by 100).
The experimental Tregitopes were solvated in DMSO. The diluted Tregitopes were then mixed with binding reagents in aqueous buffering solution, yielding a range of final concentrations from 100,000 nM down to 100 nM. Tregitopes were then assayed against a panel of five common Class II HLA alleles: HLA-DRB1*0101, HLA-DRB1*0301, HLA-DRB1*0701, HLA-DRB1*1101, and HLA-DRB1*1501. […]

Test [1] deals with CD4+ effector memory T cells. Format: cell-based, human.
In test [2] the test system is CD4+CD25+ FoxP3+ regulatory T cells. Format: cell-based, human.
Test [3] deals with T cells in PBMCs from lupus patients. Conditions: cited from earlier work.

Several values for one entry are separate records, joined by “and”; a condition that tells them apart may be missing. Equal values may be shown once.

Consider “EKDIHSGLIGPLLI (listed as Homo sapiens) [SEQ ID NO: 6]”, for which the HLA binding profile entry with Class II HLA alleles is given as “highly-restricted HLA binding profiles”.

Turning to “FAVFDENKSWYLEDN (listed as Homo sapiens) [SEQ ID NO: 4]”, in the test with Class II HLA alleles, the HLA binding profile result is listed as “highly-restricted HLA binding profiles”.

As for “IHSIHFSGHVFTVRK (listed as Homo sapiens) [SEQ ID NO: 2]”, in test [1], the “CD4+ T cell activation and proliferation of Teff responding to TT” value was “inhibited both CD4+ T cell memory responses”; the “CD4+ T cell activation reduced by” value was 70% and 50%.

Take “KIVFKNMASRPYSIY (listed as Homo sapiens) [SEQ ID NO: 3, Factor V derived peptide, used as negative control peptide]”: the “relative proportion of highly proliferative regulatory T cells (CFSE low FoxP3+) among CD25+ Granzyme B+ CD4+ T cells” value in test [2] is listed as “no significant effect”. Also, in test [1], the “activated (CD25 high) proliferating (CFSE low) CD4 T cells stimulated by Tetanus Toxoid” value is listed as “no significant inhibitory effect”, the “activated effector CD4+ T cells (CD4+/CD25-high/FoxP3-intermediate) reacting to Tetanus Toxoid” value was “no appreciable effect”, the “proliferation of CD4- cell population” value was “little inhibitory effect” and the “proliferation of total CD4+ T cells (CFSE low)” value is “little to no effect”.

Regarding “RIHMVYSKRSGKPRGYAFIEY (listed as Homo sapiens) [peptide 131-151]”, the “randomly selected lupus patients whose PBMCs contain T cells that proliferate in response to the peptide” value in test [3] was 40%.

Values taken from patent US11441122B2, “Regulatory T cell epitopes” (EpiVax, Inc., priority 2017, dated 2022).
